ChEMBL document CHEMBL1146207, “Gypsophin: a novel alpha-glucosidase inhibitory cyclic peptide from the roots of Gypsophila oldhamiana” (Bioorg Med Chem Lett, 2007)

Molecular target: Sucrase-isomaltase, intestinal (Homo sapiens, UniProt P14410)
Test: Inhibition of alpha-glucosidase by enzyme inhibition assay

Sequence of Sucrase-isomaltase, intestinal (P14410 2-1007 limits assumed): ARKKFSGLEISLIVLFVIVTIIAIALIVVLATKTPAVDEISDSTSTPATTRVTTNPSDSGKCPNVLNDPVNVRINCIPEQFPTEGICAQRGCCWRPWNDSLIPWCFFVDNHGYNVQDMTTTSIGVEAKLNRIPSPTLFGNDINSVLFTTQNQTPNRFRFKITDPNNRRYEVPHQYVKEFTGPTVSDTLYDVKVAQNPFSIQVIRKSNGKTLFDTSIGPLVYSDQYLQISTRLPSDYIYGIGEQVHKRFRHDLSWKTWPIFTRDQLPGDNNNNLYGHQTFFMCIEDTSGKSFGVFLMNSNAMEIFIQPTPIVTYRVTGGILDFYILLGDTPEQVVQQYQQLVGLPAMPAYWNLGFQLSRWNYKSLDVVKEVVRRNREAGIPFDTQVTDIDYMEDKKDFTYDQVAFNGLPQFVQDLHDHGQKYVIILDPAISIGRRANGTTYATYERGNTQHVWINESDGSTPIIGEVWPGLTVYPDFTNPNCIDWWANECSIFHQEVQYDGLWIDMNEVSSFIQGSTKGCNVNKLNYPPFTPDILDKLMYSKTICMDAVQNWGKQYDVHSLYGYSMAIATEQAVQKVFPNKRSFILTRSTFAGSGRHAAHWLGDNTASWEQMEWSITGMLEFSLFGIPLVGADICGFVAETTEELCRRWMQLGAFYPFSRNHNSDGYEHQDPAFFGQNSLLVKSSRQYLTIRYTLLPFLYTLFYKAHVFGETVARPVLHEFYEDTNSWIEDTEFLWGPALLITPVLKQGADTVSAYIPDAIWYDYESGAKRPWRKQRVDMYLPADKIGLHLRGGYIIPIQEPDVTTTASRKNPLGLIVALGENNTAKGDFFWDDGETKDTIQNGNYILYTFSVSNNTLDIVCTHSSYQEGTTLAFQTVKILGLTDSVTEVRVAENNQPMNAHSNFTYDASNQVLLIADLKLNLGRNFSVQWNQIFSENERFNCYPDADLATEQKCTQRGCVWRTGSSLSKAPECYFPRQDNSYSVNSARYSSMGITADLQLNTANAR
Sequence of Sucrase-isomaltase, intestinal (P14410 1008-1827 limits assumed): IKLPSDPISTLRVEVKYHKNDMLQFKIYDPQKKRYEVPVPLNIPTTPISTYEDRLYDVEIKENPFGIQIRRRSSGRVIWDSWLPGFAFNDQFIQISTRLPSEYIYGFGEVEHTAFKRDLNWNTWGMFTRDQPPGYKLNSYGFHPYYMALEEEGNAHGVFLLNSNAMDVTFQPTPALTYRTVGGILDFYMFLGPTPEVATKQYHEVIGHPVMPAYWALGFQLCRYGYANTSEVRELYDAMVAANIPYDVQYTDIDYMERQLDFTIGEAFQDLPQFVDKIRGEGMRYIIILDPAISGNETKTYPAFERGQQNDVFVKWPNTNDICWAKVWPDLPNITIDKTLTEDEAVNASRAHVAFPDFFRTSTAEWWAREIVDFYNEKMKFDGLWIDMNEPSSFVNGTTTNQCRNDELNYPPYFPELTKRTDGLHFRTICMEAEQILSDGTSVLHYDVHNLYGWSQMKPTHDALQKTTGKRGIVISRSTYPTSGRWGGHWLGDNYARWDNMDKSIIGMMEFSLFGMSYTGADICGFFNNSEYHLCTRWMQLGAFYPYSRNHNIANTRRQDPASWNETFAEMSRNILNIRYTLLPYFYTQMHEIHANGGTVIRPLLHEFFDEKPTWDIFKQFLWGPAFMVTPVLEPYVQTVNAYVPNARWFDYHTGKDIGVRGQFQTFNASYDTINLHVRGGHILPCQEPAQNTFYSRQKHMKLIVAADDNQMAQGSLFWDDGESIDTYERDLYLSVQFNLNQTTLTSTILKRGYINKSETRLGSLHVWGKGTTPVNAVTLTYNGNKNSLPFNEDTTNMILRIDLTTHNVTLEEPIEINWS

IC50: 305 µM
Compound: CC[C@H](C)[C@@H]1NC(=O)[C@H](Cc2ccccc2)N2C(=O)C[C@H](NC(=O)[C@H](Cc3ccccc3)NC(=O)CNC(=O)[C@@H]3CCCN3C(=O)[C@H](CC(C)C)NC1=O)C2=O [GYPSOPHIN]
